Test results reported in article PMC9181938, “Fluorinated Analogues of Lepidilines A and C: Synthesis and Screening of Their Anticancer and Antiviral Activity” (Molecules, 2022).

Columns and labels:
Assay in all cases: Cytotoxicity MTT assay (0.1–1000 µM), CC50
Vero cells = assay type: cell-based, Cercopithecus aethiops; conditions: 48 h, read-out: CC50 Normal Cell Lines Vero
LLC-MK2 cells = assay type: cell-based, Macaca mulatta; conditions: LLC-MK2, MTT, 48 h; read-out: CC50 Normal Cell Lines LLC-MK2
NCTC clone 929 cells = assay type: cell-based, Mus musculus; conditions: NCTC clone 929, MTT, 48 h; read-out: CC50 Normal Cell Lines NCTC Clone 929
MRC-5 cells = assay type: cell-based, Human; conditions: MRC-5, MTT, 48 h; read-out: CC50 Normal Cell Lines MRC-5
HeLa cells = assay type: cell-based, Human; conditions: MTT, 48 h, read-out: CC50 Cancer Cell Lines HeLa
A549 cells = assay type: cell-based, Human; conditions: 48 h, read-out: CC50 Cancer Cell Lines A549
HepG2 cells = assay type: cell-based, Human; conditions: 48 h, read-out: CC50 Cancer Cell Lines HepG2

**Q.** How did the CC50 (Vero cells) turn out when `Cc1c(C)[n+](Cc2cccc(F)c2)cn1Cc1ccccc1` [1e[PF6]] [1-Benzyl-3-(3-fluorobenzyl)-4,5-dimethylimidazolium hexafluorophosphate] was run?
**A.** 56.3 ± 3.21 µM

**Q.** And the CC50 (LLC-MK2 cells)?
**A.** 150 ± 2.52 µM

**Q.** And the CC50 (NCTC clone 929 cells)?
**A.** 148 ± 11.5 µM

**Q.** And the CC50 (MRC-5 cells)?
**A.** 150 ± 4.17 µM

**Q.** And the CC50 (HeLa cells)?
**A.** 80 ± 1 nM

**Q.** What about the CC50 (A549 cells) of the same compound?
**A.** 38 ± 3.46 µM

**Q.** What about the CC50 (HepG2 cells) of the same compound?
**A.** 317 ± 5.77 µM
